Experimental data as given in patent US20250368552A1, “INHIBITION OF BIOFILMS GROWTH IN PROCESS WATERS WITH MICROBIAL INTERACTIVE COMPOSITIONS” (ECOLAB USA INC., priority 2024, published 2025).

Tests used:
[1] = system: Cooling Water Bacteria Population 1; assay: Biofilm inhibition test, 96 well microtiter plate, crystal violet stain (similar to ASTM E2799-12 MBEC assay); assay type: cell-based
Text: The bacterial species used for the biofilm inhibition testing included: 1) cooling water bacterial population 1=total aerobic bacterial population that was obtained from cooling water samples in cooling water systems and grown on standard nutrient agar for aerobic bacteria, and 2) cooling water bacterial population 2=Pseudomonas species in cooling water systems. Pseudomonas species were collected from cooling water samples from selective media. The collected Pseudomonas population from cooling water systems were stored at −80° C. and re-inoculated into 100 mL fresh test medium (described below), incubated at a rotary shaker at 35° C., […] for 18-24 hours before used as a starter culture. […]
(§1) To quantify the biofilm and effect of the chemicals, the minimal biofilm eradication concentration (MBEC) using a method similar to the ASTM method for Testing disinfectant efficacy against Pseudomonas aeruginosa Biofilm using MBEC Assay (E2799-12), Standard Test Method for Testing Disinfectant Efficacy against Pseudomonas aeruginosa Biofilm using MBEC Assay. […]
The control where there was no chemical treatment present indicated a steady presence of biofilm build up between absorbance 0.5 to 0.6. The biofilm concentrations are correlated to the absorbance at wavelength 580-595 nm (depicted in figures as Obs 580 nm). […]

[2] = system: Cooling Water Bacteria Population 2; assay: as above; assay type: cell-based, Pseudomonas species in cooling water systems
Text: The bacterial species used for the biofilm inhibition testing included: 1) cooling water bacterial population 1=total aerobic bacterial population that was obtained from cooling water samples in cooling water systems and grown on standard nutrient agar for aerobic bacteria, and 2) cooling water bacterial population 2=Pseudomonas species in cooling water systems. Pseudomonas species were collected from cooling water samples from selective media. The collected Pseudomonas population from cooling water systems were stored at −80° C. and re-inoculated into 100 mL fresh test medium (described below), incubated at a rotary shaker at 35° C., […] for 18-24 hours before used as a starter culture.
The concentration range for the testing of these microorganisms for the waters was 10^4-10^8 CFU/ml.
The following Examples utilized a 96-well microtiter plate and aerobic incubation.
The Biofilm inhibition testing utilized a test medium with a final concentration of 16% test medium in the water. […]
as §1

[3] = system: biofilm; assay: Biofilm quantity on surface by crystal violet staining, biofilm reduction vs control; assay type: cell-based; conditions: for Avg Biofilm Reduction: (Treatment OD595 - Control OD595)*100/Control OD595, negative = less biofilm
Text: (§2) Additional testing was run to show various evaluated concentrations of chemistries including No Treatment (Control), QAT Biocide, Chemical B, and Chemical A+E for assessing biofilm reduction based on average planktonic bacterial concentrations as shown in Table 5.
The following methodology for the biofilm concentration on surface were used:
Biofilm quantity: biofilm quantity grew on surface can be determined by crystal violate staining, followed by 3 times of washing and then eluting.
Biofilm Reduction from chemical treatment is calculated by the following: (average Treatment OD595-average Control OD595)*100/average Control OD595 where the CV absorbance range used was 580-595 nm. If OD595 was <0.1, it was considered as non-biofilm formation. CV absorbance range 580-595 nm was used in different tests.

[4] = system: Bact P1 (Cooling Water Bacteria Population 1), planktonic growth; assay: Planktonic inhibition (minimum inhibition concentration in liquid culture); assay type: cell-based
Text: (§3) Another plate was run according to the same procedures outlined in Examples 1-3. The experiment tested Chemicals including Alkyl Poly Glucoside, QAT Biocide, Chemical B, Chemical A+D for Planktonic inhibition as well as Biofilm Inhibition as reflected in Table 4.
(§4) The results in Table 4 show minimum biofilm inhibition concentrations (ppm) when treating different bacterial populations with each of the chemicals alone.
(§5) Minimum Inhibition Concentration (MIC): at this concentration, bacterial population stopped growth under the above incubation conditions
(§6) OD600 turbidity: bacterial concentration is correlated with the medium turbidity, The planktonic concentration can be calculated using a turbidity to bacterial count concentration model. If OD600 is <0.1, it is considered bacterial counts <10^3 cfu/ml.

[5] = system: Bact P2 (Cooling Water Bacteria Population 2), planktonic growth; assay: as above; assay type: cell-based; conditions: minimum inhibitory concentration
Text: as §3, §4, §5, §6

[6] = system: planktonic bacteria; assay: Average planktonic bacterial concentration in liquid culture (plate count / OD600 turbidity); assay type: cell-based; conditions: control 8.7
Text: as §2
The following methodology for the bacterial concentration in liquid culture were used:
Plate count: plate the treated bacterial mixture after serial dilutions with required mediums like R2A, Petrifilms etc.
as §6

[7] = system: indigenous microbial populations of cooling water sources; assay: MIC of hypochlorite (as free chlorine) for biofilm formation in commercial cooling water sources; assay type: cell-based; conditions: for MIC hypochlorite: hypochlorite alone, as free chlorine
Protocol: Additional testing was completed to show the benefit of reducing a biocidal dose with the method of preventing biofilms described herein. Various commercial cooling water sources were evaluated for the MIC of hypochlorite (Minimum Inhibition Concentration as free chlorine for biofilm formation) as the biocide dosed with the Chemistry A+Chemistry E. The test conditions and results are shown in Table 6.
Under certain conditions the biocide dosing requirement was reduced by over 90%.

[8] = concentration giving biofilm reduction
[9] = minimum biofilm inhibition concentration

## CCCCCCCCCC[N+](C)(C)CCCCCCCCCC.[Cl-] [QATS Biocide, Didecyl Dimethyl Ammonium Chloride]
[1]; [8]
  Biofilm Reduction Bact P1: 0.8 ppm
[1]; [9]
  Total Biofilm Inhibition Bact P1: 6 ppm
[2]; [8]
  Biofilm reduction Bact P2: 0.8 ppm
[2]; [9]
  Total Biofilm Inhibition Bact P2: 1.6 ppm
[3]; 1.6 ppm
  Avg Biofilm Reduction: 49.9%
[3]; 3.1 ppm
  Avg Biofilm Reduction: 54.0%
[3]; 6.2 ppm
  Avg Biofilm Reduction: 108.4%
[3]; 12.5 ppm
  Avg Biofilm Reduction: −3.5%
[3]; 25.0 ppm
  Avg Biofilm Reduction: 34.7%
[3]; 50.0 ppm
  Avg Biofilm Reduction: −89.1%
[3]; 100.0 ppm
  Avg Biofilm Reduction: −12.1%
[3]; Table 5
  Concentration showing both planktonic and biofilm control: greater than 50 ppm
[4]; Table 4, Bact P1 and Bact P2
  Concentration that effectively killed planktonic bacteria: ≤ 3 ppm
[4]; minimum inhibitory concentration, Bact P1
  Planktonic Inhibition Bact P1: 3 ppm
[5]
  Planktonic Inhibition Bact P2: 1.6 ppm
[6]; 1.6 ppm
  Avg Planktonic Bacterial Conc: 8.672 Log cfu/ml
[6]; 3.1 ppm
  Avg Planktonic Bacterial Conc: 8.688 Log cfu/ml
[6]; 6.2 ppm
  Avg Planktonic Bacterial Conc: 8.609 Log cfu/ml
[6]; 12.5 ppm
  Avg Planktonic Bacterial Conc: 8.492 Log cfu/ml
[6]; 25.0 ppm
  Avg Planktonic Bacterial Conc: 8.590 Log cfu/ml
[6]; 50.0 ppm
  Avg Planktonic Bacterial Conc: <3.000 Log cfu/ml
[6]; 100.0 ppm
  Avg Planktonic Bacterial Conc: <3.000 Log cfu/ml

## OCl [hypochlorite]
[7]; Cooling Water Source 1
  MIC hypochlorite: 25 ppm
  MIC hypochlorite (ppm) With 6 ppm Chemistry A + Chemistry E: 3.1 ppm
[7]; Cooling Water Source 2
  MIC hypochlorite: 25 ppm
  MIC hypochlorite (ppm) With 6 ppm Chemistry A + Chemistry E: 6.3 ppm
[7]; Cooling Water Source 3
  MIC hypochlorite: 12.5 ppm
  MIC hypochlorite (ppm) With 6 ppm Chemistry A + Chemistry E: 0.8 ppm
[7]; Cooling Water Source 4
  MIC hypochlorite: 25 ppm
  MIC hypochlorite (ppm) With 6 ppm Chemistry A + Chemistry E: 12.5 ppm
